{"source": "patent EP1170007A1", "about": "“REMEDIES” (Takara Shuzo Co, Ltd., priority 1999, dated 2000)", "key": {"[1]": {"system": "nerve growth factor production by L-M cells", "test": "Enhancement of nerve growth factor production in L-M cells (enzyme immunoassay)", "type": "cell-based, Rat", "procedure": "Rat fibroblast L-M cells (ATCC CCL-1.2) were suspended in a M199 medium (Gibco) containing 0.5% Bacto Peptone (Gibco) at a concentration of 1.0 x 10^5 cells/ml. 1 ml of the suspension was inoculated into each well of a 24-well plate. The cells were cultured aseptically. After culturing for 2 days, the medium was removed and substituted with a M199 medium containing 0.5% bovine serum albumin (Sigma). Then, cyclopentenone (final concentration of 1 to 25 µM), 4HCP (Aldrich) (final concentration of 12.5µM) or dipropionylcyclopentenone (final concentration of 3.1 to 9.4 µM) was added thereto. […]\nAfter completion of the incubation, the concentration of nerve growth factor in the culture was measured by enzyme immunoassay (NGF Emax Immuno Assay System: Promega). […]"}, "mouse": {"system": "mouse", "test": "Single oral dose toxicity in mouse", "type": "in vivo", "details": "mouse, in vivo, po, 100 mg/kg"}, "[2]": {"system": "human insulin-like growth factor-1 (h-IGF-1) production in Hs68 cells", "test": "Enhancement of h-IGF-1 production in Hs68 cells (ELISA)", "type": "cell-based", "details": "Example 3-(2): 10 to 20 µM", "procedure": "(1) Human newborn foreskin […] Hs68 cells (ATCC CRL-1635) were cultured in a D-MEM medium (Bio Whittaker) containing 10% fetal calf serum (FBS; Gibco BRL) in the presence of 5% CO2 at 37°C to saturation in a culture vessel. Then, the cells were suspended in the medium at a concentration of 3 x 10^5/ml using a trypsin-EDTA solution (Bio Whittaker). 200 µl of the suspension was dispensed into each well of a 96-well microtiter plate. When the cells were almost saturated in the culture vessel after culturing for 5 days, the medium was discarded and a medium containing 4HCP at a concentration of 40, 100 or 200 µM was added thereto. The culture supernatant was recovered at intervals of 24 hours for up to 96 hours. The effect of 4HCP on enhancement of human insulin-like growth factor-1 (h-IGF-1) production in Hs68 cells was determined using ELISA-Kit for h-IGF-1 (Diagnostic System Labo).\n(2) Hs68 cells were cultured in a D-MEM medium containing 10% fetal calf serum in the presence of 5% CO2 at 37°C to saturation in a culture vessel. Then, the cells were suspended in the medium at a concentration of 3 x 10^5/ml using a trypsin-EDTA solution. 200 µl of the suspension was dispensed into each well of a 96-well microtiter plate. When the cells were almost saturated in the culture vessel after culturing for 5 to 7 days, the medium was discarded and the medium containing cyclopentenone or GM at a concentration of 0, 2.5, 5, 10 or 20 µM was added thereto. The culture supernatant was recovered at 1, 3, 6, 12, 24 or 48 hours. The effect of cyclopentenone or GM on the production (enhancement of expression) of h-IGF-1 in Hs68 cells was determined using ELISA-Kit for h-IGF-1. […] The amount of h-IGF-1 produced 6 hours after the addition was about twice the amount for the control with no addition. […] (3) Hs68 cells were cultured in a D-MEM medium containing 10% fetal calf serum in the presence of 5% CO2 at 37°C to saturation in a culture vessel. Then, the cells were suspended in the medium at a concentration of 3 x 10^5/ml using a trypsin-EDTA solution. 200 µl of the suspension was dispensed into each well of a 96-well microtiter plate. When the cells were almost saturated in the culture vessel after culturing for 5 to 7 days, the medium was discarded and the medium containing 4HCP, a compound of formula (XVIII) (4HCP-GSH) or glutathione (GSH) at a concentration of 0, 25, 50, 100 or 200 µM was added thereto. The culture supernatant was recovered at 1, 3, 6, 12, 24 or 48 hours. The effect on the production (enhancement of expression) of h-IGF-1 in Hs68 cells was determined using ELISA-Kit for h-IGF-1. As a result, when 4HCP was added at a concentration of 25 to 200 µM, h-IGF production in Hs68 cells became maximal at 1 hour and decreased thereafter as the time went by. […] Significant enhancement of h-IGF-1 production was observed when cultured for 10 to 30 minutes. […]"}, "[3]": {"system": "HGF production, MRC-5 cells", "test": "Enhancement of HGF production in MRC-5 cells (ELISA)", "type": "cell-based, Human", "details": "for Increase in HGF production: 24 hours, negative control defined as 100% (7.2 ng/ml)", "procedure": "MRC-5 cells (CCL171, Dainippon Pharmaceutical) were suspended in a DME medium (Bio Whittaker) containing 10% fetal calf serum at a concentration of 1 x 10^5 cells/ml. 500 µl of the suspension was placed into a 48-well cell culture plate. After culturing at 37°C in the presence of 5% CO2 for 24 hours, the medium was exchanged for a DME medium containing 1% fetal calf serum. Then, one of samples was added thereto. The plate was incubated for additional 24 hours. The medium was then recovered, and the amount of HGF in the culture medium was measured using Quantikine Human Hepatocyte Growth Factor (HGF) ELISA Kit (Funakoshi). The amount of HGF produced was expressed defining a negative control as 100%. In this case, the amount of HGF produced for the negative control was 7.2 ng/ml. Cyclopentenone (at a final concentration of 20, 40 or 160 µM), GM (at a final concentration of 20, 40, 80 or 160 µM), or dipropionylcyclopentenone (at a final concentration of 32 or 64 µM) was added as a sample. As a negative control, distilled water was added in the same volume as the sample. As a positive control, prostaglandin E1 was added at a final concentration of 0.01, 0.1, 1 or 10 µM."}}}
{"smiles": "O=C1C=CC(O)C1O", "note": "(centres unmarked) [cyclopentenone, 4,5-dihydroxy-2-cyclopenten-1-one]", "values": [{"measurement": "Nerve growth factor concentration", "setting": "[1]; 1 µM, 24 hours, 0 µM control 0.570", "value": 0.700, "unit": "ng/mL"}, {"measurement": "Nerve growth factor concentration", "setting": "[1]; 2.5 µM, 24 hours, 0 µM control 0.570", "value": 0.740, "unit": "ng/mL"}, {"measurement": "Nerve growth factor concentration", "setting": "[1]; 5 µM, 24 hours, 0 µM control 0.570", "value": 0.870, "unit": "ng/mL"}, {"measurement": "Nerve growth factor concentration", "setting": "[1]; 7.5 µM, 24 hours, 0 µM control 0.570", "value": 0.900, "unit": "ng/mL"}, {"measurement": "Nerve growth factor concentration", "setting": "[1]; 10 µM, 24 hours, 0 µM control 0.570", "value": 1.080, "unit": "ng/mL"}, {"measurement": "Nerve growth factor concentration", "setting": "[1]; 12.5 µM, 24 hours, 0 µM control 0.570", "value": 1.340, "unit": "ng/mL"}, {"measurement": "Nerve growth factor concentration", "setting": "[1]; 15 µM, 24 hours, 0 µM control 0.570", "value": 1.550, "unit": "ng/mL"}, {"measurement": "Nerve growth factor concentration", "setting": "[1]; 17.5 µM, 24 hours, 0 µM control 0.570", "value": 2.150, "unit": "ng/mL"}, {"measurement": "Nerve growth factor concentration", "setting": "[1]; 20 µM, 24 hours, 0 µM control 0.570", "value": 1.900, "unit": "ng/mL"}, {"measurement": "Nerve growth factor concentration", "setting": "[1]; 25 µM, 24 hours, 0 µM control 0.570", "value": 1.540, "unit": "ng/mL"}, {"measurement": "production of nerve growth factor by L-M cells (result in words)", "setting": "[1]; 24 hours incubation", "value": "enhanced the production of nerve growth factor by L-M cells in a concentration-dependent manner"}, {"measurement": "Nerve growth factor concentration", "setting": "[1]; time course: 15 µM, cultivation time 0 hour, control 0.000", "value": 0.000, "unit": "ng/mL"}, {"measurement": "Nerve growth factor concentration", "setting": "[1]; time course: 15 µM, cultivation time 3 hour, control 0.028", "value": 0.050, "unit": "ng/mL"}, {"measurement": "Nerve growth factor concentration", "setting": "[1]; time course: 15 µM, cultivation time 6 hour, control 0.233", "value": 0.359, "unit": "ng/mL"}, {"measurement": "Nerve growth factor concentration", "setting": "[1]; time course: 15 µM, cultivation time 12 hour, control 0.575", "value": 0.686, "unit": "ng/mL"}, {"measurement": "Nerve growth factor concentration", "setting": "[1]; time course: 15 µM, cultivation time 24 hour, control 0.658", "value": 1.186, "unit": "ng/mL"}, {"measurement": "Nerve growth factor concentration", "setting": "[1]; time course: 15 µM, cultivation time 48 hour, control 0.736", "value": 1.236, "unit": "ng/mL"}, {"measurement": "Nerve growth factor concentration", "setting": "[1]; time course: 17.5 µM, cultivation time 0 hour, control 0.000", "value": 0.000, "unit": "ng/mL"}, {"measurement": "Nerve growth factor concentration", "setting": "[1]; time course: 17.5 µM, cultivation time 3 hour, control 0.028", "value": 0.054, "unit": "ng/mL"}, {"measurement": "Nerve growth factor concentration", "setting": "[1]; time course: 17.5 µM, cultivation time 6 hour, control 0.233", "value": 0.205, "unit": "ng/mL"}, {"measurement": "Nerve growth factor concentration", "setting": "[1]; time course: 17.5 µM, cultivation time 12 hour, control 0.575", "value": 0.635, "unit": "ng/mL"}, {"measurement": "Nerve growth factor concentration", "setting": "[1]; time course: 17.5 µM, cultivation time 24 hour, control 0.658", "value": 1.535, "unit": "ng/mL"}, {"measurement": "Nerve growth factor concentration", "setting": "[1]; time course: 17.5 µM, cultivation time 48 hour, control 0.736", "value": 1.492, "unit": "ng/mL"}, {"measurement": "Nerve growth factor concentration", "setting": "[1]; time course: 20 µM, cultivation time 0 hour, control 0.000", "value": 0.000, "unit": "ng/mL"}, {"measurement": "Nerve growth factor concentration", "setting": "[1]; time course: 20 µM, cultivation time 3 hour, control 0.028", "value": 0.082, "unit": "ng/mL"}, {"measurement": "Nerve growth factor concentration", "setting": "[1]; time course: 20 µM, cultivation time 6 hour, control 0.233", "value": 0.179, "unit": "ng/mL"}, {"measurement": "Nerve growth factor concentration", "setting": "[1]; time course: 20 µM, cultivation time 12 hour, control 0.575", "value": 0.581, "unit": "ng/mL"}, {"measurement": "Nerve growth factor concentration", "setting": "[1]; time course: 20 µM, cultivation time 24 hour, control 0.658", "value": 1.681, "unit": "ng/mL"}, {"measurement": "Nerve growth factor concentration", "setting": "[1]; time course: 20 µM, cultivation time 48 hour, control 0.736", "value": 1.874, "unit": "ng/mL"}, {"measurement": "death after single oral dose", "setting": "mouse", "value": "no example of death was observed"}, {"measurement": "production of h-IGF-1 in Hs68 cells (result in words)", "setting": "[2]", "value": "h-IGF-1 production was observed from 1-hour to 6 hours after the addition"}, {"measurement": "Increase in HGF production", "setting": "[3]; 20 µM", "value": 144, "unit": "%"}, {"measurement": "Increase in HGF production", "setting": "[3]; 40 µM", "value": 218, "unit": "%"}, {"measurement": "Increase in HGF production", "setting": "[3]; 160 µM", "value": 238, "unit": "%"}, {"measurement": "amount of HGF produced as compared with the negative control (result in words)", "setting": "[3]; negative control: distilled water", "value": "significantly increased"}]}
